ChEMBL document CHEMBL5352419, “Design, synthesis, and biological evaluation of tetrahydroquinoline amphiphiles as membrane-targeting antimicrobials against pathogenic bacteria and fungi” (Eur J Med Chem, 2022)
Values after ≈ are worked out from the molar mass of the structure shown. Active and inactive are the calls of the source. The calls are words filed in the database; no cut-off is given here.

Experiments:
Escherichia coli [1] = test: Antimicrobial activity against Escherichia coli ATCC25922 assessed as bacterial growth inhibition incubated for 24 hrs by Muller Hinton broth based dilution assay; assay type: functional
Staphylococcus aureus [2] = test: Disruption of preformed biofilm in Staphylococcus aureus ATCC29213 assessed as residual preformed biofilm at 6.25 ug/mL incubated for 24 hrs by crystal violet staining based analysis relative to control; assay type: functional; details: dose 6.25 µg/ml
Staphylococcus aureus [3] = test: Antimicrobial activity against Staphylococcus aureus ATCC29213 assessed as bacterial growth inhibition incubated for 24 hrs by Muller Hinton broth based dilution assay; assay type: functional
Staphylococcus aureus [4] = test: Antibiofilm activity against Staphylococcus aureus ATCC29213 assessed as inhibition of biofilm formation at 0.39 ug/mL incubated for 24 hrs by crystal violet staining based analysis relative to control; assay type: functional
Staphylococcus aureus [5] = test: Antibiofilm activity against Staphylococcus aureus ATCC29213 assessed as inhibition of biofilm formation at 0.78 ug/mL incubated for 24 hrs by crystal violet staining based analysis relative to control; assay type: functional
Staphylococcus aureus [6] = test: Disruption of preformed biofilm in Staphylococcus aureus ATCC29213 assessed as residual preformed biofilm at 3.125 ug/mL incubated for 24 hrs by crystal violet staining based analysis relative to control; assay type: functional; details: dose 3.125 µg/ml
Staphylococcus aureus [7] = test: Antimicrobial activity against methicillin-resistant Staphylococcus aureus NCTC10442 assessed as bacterial growth inhibition incubated for 24 hrs by Muller Hinton broth based dilution assay; assay type: functional
Staphylococcus aureus [8] = test: Disruption of preformed biofilm in Staphylococcus aureus ATCC29213 assessed as residual preformed biofilm at 0.78 ug/mL incubated for 24 hrs by crystal violet staining based analysis relative to control; assay type: functional; details: dose 0.78 µg/ml
Staphylococcus aureus [9] = test: Disruption of preformed biofilm in Staphylococcus aureus ATCC29213 assessed as residual preformed biofilm at 0.39 ug/mL incubated for 24 hrs by crystal violet staining based analysis relative to control; assay type: functional; details: dose 0.39 µg/ml
Staphylococcus aureus [10] = test: Antibiofilm activity against Staphylococcus aureus ATCC29213 assessed as inhibition of biofilm formation at 6.25 ug/mL incubated for 24 hrs by crystal violet staining based analysis relative to control; assay type: functional
Staphylococcus aureus [11] = test: Antimicrobial activity against methicillin-resistant Staphylococcus aureus N315 assessed as bacterial growth inhibition incubated for 24 hrs by Muller Hinton broth based dilution assay; assay type: functional
Staphylococcus aureus [12] = test: Disruption of preformed biofilm in Staphylococcus aureus ATCC29213 assessed as residual preformed biofilm at 12.5 ug/mL incubated for 24 hrs by crystal violet staining based analysis relative to control; assay type: functional; details: dose 12.5 µg/ml
Acinetobacter baumannii [13] = test: Antimicrobial activity against Acinetobacter baumannii R2889 assessed as bacterial growth inhibition incubated for 24 hrs by Muller Hinton broth based dilution assay; assay type: functional
Klebsiella pneumoniae [14] = test: Antimicrobial activity against Klebsiella pneumoniae ATCC14581 assessed as bacterial growth inhibition incubated for 24 hrs by Muller Hinton broth based dilution assay; assay type: functional
Cell membrane = test: Disruption of outer membrane integrity in Acinetobacter baumannii ATCC17978 at 25 ug/mL; details: dose 25.0 µg/ml
Klebsiella pneumoniae [15] = test: Antimicrobial activity against Klebsiella pneumoniae ATCC10031 assessed as bacterial growth inhibition incubated for 24 hrs by Muller Hinton broth based dilution assay; assay type: functional
Candida albicans [16] = test: Antimicrobial activity against Candida albicans ATCC10231 assessed as fungal growth inhibition incubated for 48 hrs by Sabouraud Dextrose broth based dilution assay; assay type: functional
Candida albicans [17] = test: Antimicrobial activity against Candida albicans CMCC98001 assessed as fungal growth inhibition incubated for 48 hrs by Sabouraud Dextrose broth based dilution assay; assay type: functional
Pseudomonas aeruginosa [18] = test: Antimicrobial activity against Pseudomonas aeruginosa ATCC9027 assessed as bacterial growth inhibition incubated for 24 hrs by Muller Hinton broth based dilution assay; assay type: functional
Acinetobacter baumannii [19] = test: Antimicrobial activity against Acinetobacter baumannii ATCC17978 assessed as bacterial growth inhibition incubated for 24 hrs by Muller Hinton broth based dilution assay; assay type: functional
[20] = Hemolytic activity in rabbit RBC incubated for 1 hr by absorbance based microplate reader assay; assay type: toxicity, cell-based, Oryctolagus cuniculus, Erythrocyte; details: rabbit red blood cells (erythrocytes)
Staphylococcus aureus [21] = test: Induction of drug resistance in Staphylococcus aureus ATCC29213 assessed as fold increase in MIC at sub-inhibitory concentration incubated for 21 to 22 passages; assay type: functional
Pseudomonas aeruginosa [22] = test: In vivo antibacterial activity against Pseudomonas aeruginosa ATCC9027 infected in keratitis C57BL/6 mouse model assessed as log reduction in bacterial load at 0.3 % administered topically 4 times per day for 3 days; assay type: functional; details: time 3 day
Escherichia coli [23] = test: Antibiofilm activity against Escherichia coli ATCC25922 assessed as inhibition of biofilm formation at 3.125 ug/mL incubated for 24 hrs by crystal violet staining based analysis relative to control; assay type: functional; details: dose 3.125 µg/ml
Escherichia coli [24] = test: Disruption of preformed biofilm in Escherichia coli ATCC25922 assessed as residual preformed biofilm at 0.78 ug/mL incubated for 24 hrs by crystal violet staining based analysis relative to control; assay type: functional; details: dose 0.78 µg/ml
Escherichia coli [25] = test: Disruption of preformed biofilm in Escherichia coli ATCC25922 assessed as residual preformed biofilm at 3.125 ug/mL incubated for 24 hrs by crystal violet staining based analysis relative to control; assay type: functional; details: dose 3.125 µg/ml
Escherichia coli [26] = test: Disruption of preformed biofilm in Escherichia coli ATCC25922 assessed as residual preformed biofilm at 6.25 ug/mL incubated for 24 hrs by crystal violet staining based analysis relative to control; assay type: functional; details: dose 6.25 µg/ml
Escherichia coli [27] = test: Antibiofilm activity against Escherichia coli ATCC25922 assessed as inhibition of biofilm formation at 0.78 ug/mL incubated for 24 hrs by crystal violet staining based analysis relative to control; assay type: functional; details: dose 0.78 µg/ml
Escherichia coli [28] = test: Antibiofilm activity against Escherichia coli ATCC25922 assessed as inhibition of biofilm formation at 0.39 ug/mL incubated for 24 hrs by crystal violet staining based analysis relative to control; assay type: functional; details: dose 0.39 µg/ml
Escherichia coli [29] = test: Disruption of preformed biofilm in Escherichia coli ATCC25922 assessed as residual preformed biofilm at 12.5 ug/mL incubated for 24 hrs by crystal violet staining based analysis relative to control; assay type: functional; details: dose 12.5 µg/ml
Escherichia coli [30] = test: Antibiofilm activity against Escherichia coli ATCC25922 assessed as inhibition of biofilm formation at 6.25 ug/mL incubated for 24 hrs by crystal violet staining based analysis relative to control; assay type: functional; details: dose 6.25 µg/ml
Escherichia coli [31] = test: Disruption of preformed biofilm in Escherichia coli ATCC25922 assessed as residual preformed biofilm at 25 ug/mL incubated for 24 hrs by crystal violet staining based analysis relative to control; assay type: functional; details: dose 25.0 µg/ml
Escherichia coli [32] = test: Induction of drug resistance in Escherichia coli ATCC25922 assessed as fold increase in MIC at sub-inhibitory concentration incubated for 21 to 22 passages; assay type: functional

Row | Compound | MIC (Escherichia coli [1]) [µg/mL] | MIC (Staphylococcus aureus [3]) [µg/mL] | MIC (Staphylococcus aureus [7]) [µg/mL] | MIC (Staphylococcus aureus [11]) [µg/mL] | MIC (Acinetobacter baumannii [13]) [µg/mL] | MIC (Klebsiella pneumoniae [14]) [µg/mL] | MIC (Klebsiella pneumoniae [15]) [µg/mL] | MIC (Candida albicans [16]) [µg/mL] | MIC (Candida albicans [17]) [µg/mL] | MIC (Pseudomonas aeruginosa [18]) [µg/mL] | MIC (Acinetobacter baumannii [19]) [µg/mL] | HC50 at 1 h [20] [µg/mL] | also measured
1 | CN[C@H](CC(C)C)C(=O)N[C@H]1C(=O)N[C@@H](CC(N)=O)C(=O)N[C@H]2C(=O)N[C@H]3C(=O)N[C@H](C(=O)N[C@H](C(=O)O)c4cc(O)cc(O)c4-c4cc3ccc4O)[C@H](O)c3ccc(c(Cl)c3)Oc3cc2cc(c3O[C@@H]2O[C@H](CO)[C@@H](O)[C@H](O)[C@H]2O[C@H]2C[C@](C)(N)[C@H](O)[C@H](C)O2)Oc2ccc(cc2Cl)[C@H]1O [VANCOMYCIN] | > 50 | 0.78 (≈ 0.538 µM) | 1.56 (≈ 1.08 µM) | 1.56 (≈ 1.08 µM) |  |  |  |  |  |  |  |  | Activity (Staphylococcus aureus [2]): 10.69%; inhibition at 0.39 µg/mL (Staphylococcus aureus [4]): 3.73%; inhibition at 0.78 µg/mL (Staphylococcus aureus [5]): 30.3%; Activity (Staphylococcus aureus [6]): 49.44%; Activity (Staphylococcus aureus [8]): 91.12%; Activity (Staphylococcus aureus [9]): 98.16%; inhibition at 6.25 µg/mL (Staphylococcus aureus [10]): 99.6%; Activity (Staphylococcus aureus [12]): -0.81%
2 | CCCCCCCN1CCCc2cc(OCCCCCCCCNC(=N)N)ccc21 | 3.12 (≈ 7.5 µM) | 1.56 (≈ 3.74 µM) | 0.78 (≈ 1.87 µM) | 0.78 (≈ 1.87 µM) | 12.5 (≈ 30 µM) | 12.5 (≈ 30 µM) | 12.5 (≈ 30 µM) | 0.78 (≈ 1.87 µM) | 0.39 (≈ 0.936 µM) | > 50 | 25 (≈ 60 µM) | > 200 | Activity (Cell membrane): inactive
3 | CCn1cc(C(=O)O)c(=O)c2cc(F)c(N3CCNCC3)cc21 |  |  |  |  |  |  |  |  |  |  |  |  | fold change (FC) (Staphylococcus aureus [21]): 1024
4 | COc1c(N2CCNC(C)C2)c(F)cc2c(=O)c(C(=O)O)cn(C3CC3)c12 (stereo unspecified) [GATIFLOXACIN] |  |  |  |  |  |  |  |  |  |  |  |  | log(activity) (Pseudomonas aeruginosa [22]): 3.7
5 | POLYMYXIN B |  |  |  |  |  |  |  |  |  |  |  |  | inhibition (Escherichia coli [23]): 99.8%; Activity (Escherichia coli [24]): 87.5%; Activity (Escherichia coli [25]): 19.2%; Activity (Escherichia coli [26]): 7.57%; inhibition (Escherichia coli [27]): 43.3%; inhibition (Escherichia coli [28]): 22.9%; Activity (Escherichia coli [29]): 8.48%; inhibition (Escherichia coli [30]): 100%; Activity (Escherichia coli [31]): 6.65%
6 | CC1(C)S[C@@H]2[C@H](NC(=O)[C@H](N)c3ccc(O)cc3)C(=O)N2[C@H]1C(=O)O |  |  |  |  |  |  |  |  |  |  |  |  | fold change (FC) (Escherichia coli [32]): 16
7 | CC(C)=CCN1CCCc2cc(OCCCCCCCCCCNC(=N)N)ccc21 | 12.5 (≈ 30.1 µM) | 1.56 (≈ 3.76 µM) | 1.56 (≈ 3.76 µM) | 0.78 (≈ 1.88 µM) | 12.5 (≈ 30.1 µM) | 6.25 (≈ 15.1 µM) | 3.12 (≈ 7.54 µM) | 1.56 (≈ 3.76 µM) | 1.56 (≈ 3.76 µM) | 50 (≈ 121 µM) | 25 (≈ 60.3 µM) | > 200 | 
8 | CCCCCN1CCCc2cc(OCCCCNC(=N)N)ccc21 | 12.5 (≈ 37.6 µM) | 1.56 (≈ 4.69 µM) | 1.56 (≈ 4.69 µM) | 1.56 (≈ 4.69 µM) | 25 (≈ 75.2 µM) | 12.5 (≈ 37.6 µM) | 6.25 (≈ 18.8 µM) | 50 (≈ 150 µM) | 50 (≈ 150 µM) | 25 (≈ 75.2 µM) | 12.5 (≈ 37.6 µM) | 178 | 
